Assay results taken from patent publication US20110243924A1, “NOVEL METHODS” (priority 2007, published 2011).

Assays:
Men with COPD = experiment: Clinical Phase II study, single inhaled doses by dry powder inhaler; assay type: in vivo, human; details: for mean FEV1 AUC(0-24)/24: placebo 1.597 L
Description: Clinical Phase […] study: A double-blind, randothised, placebo-controlled, cross-over trial assesses the pharmacodynamics, pharmacokinetics and tolerability of aclidinium and its effects in COPD patients
Lung function measurements include FEV1 and FVC.

[1] = target: T1, M2 human muscarinic receptor (Homo sapiens, UniProt P08172); experiment: Binding of aclidinium metabolites to muscarinic receptors
T1 sequence (P08172 1-466): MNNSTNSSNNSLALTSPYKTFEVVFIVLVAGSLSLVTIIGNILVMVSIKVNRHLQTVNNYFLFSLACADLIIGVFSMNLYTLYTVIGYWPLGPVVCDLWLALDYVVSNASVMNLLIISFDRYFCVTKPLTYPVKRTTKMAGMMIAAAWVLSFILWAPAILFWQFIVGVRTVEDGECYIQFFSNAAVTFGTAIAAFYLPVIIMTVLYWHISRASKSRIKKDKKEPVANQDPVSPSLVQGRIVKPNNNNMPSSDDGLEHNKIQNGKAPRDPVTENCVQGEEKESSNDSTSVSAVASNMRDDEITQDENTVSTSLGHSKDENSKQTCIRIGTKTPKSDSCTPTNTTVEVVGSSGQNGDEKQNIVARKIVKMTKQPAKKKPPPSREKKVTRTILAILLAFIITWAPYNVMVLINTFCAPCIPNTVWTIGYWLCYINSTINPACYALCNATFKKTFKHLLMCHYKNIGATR
Protocol: (§1) Aclidinium is rapidly hydrolyzed in human plasma in its alcohol and acid metabolites. […] The plasma half life of aclidinium in plasma is lower than 5 minutes for human. Moreover, aclidinium is stable in acid aqueous solutions (pH≦4) and the hydrolytic cleavage of the ester bond takes place at neutral and basic pHs.

[2] = target: T2, M1 human muscarinic receptor (Homo sapiens, UniProt P11229); experiment: as above
T2 sequence (P11229 1-460): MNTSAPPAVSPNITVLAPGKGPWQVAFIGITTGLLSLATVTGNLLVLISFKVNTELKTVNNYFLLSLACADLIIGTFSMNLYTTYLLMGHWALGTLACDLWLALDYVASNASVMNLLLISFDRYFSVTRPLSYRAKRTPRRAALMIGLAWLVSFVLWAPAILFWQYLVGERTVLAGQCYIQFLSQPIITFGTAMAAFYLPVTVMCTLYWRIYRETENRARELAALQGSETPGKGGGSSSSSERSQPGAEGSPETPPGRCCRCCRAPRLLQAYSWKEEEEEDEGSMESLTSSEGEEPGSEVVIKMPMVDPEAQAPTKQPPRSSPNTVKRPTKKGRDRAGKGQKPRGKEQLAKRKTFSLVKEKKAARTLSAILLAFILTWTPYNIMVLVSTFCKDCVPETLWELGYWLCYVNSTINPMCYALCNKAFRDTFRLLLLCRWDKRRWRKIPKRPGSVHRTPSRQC
Protocol: as §1

[3] = target: T3, M4 human muscarinic receptor (Homo sapiens, UniProt P08173); experiment: as above
T3 sequence (P08173 1-479): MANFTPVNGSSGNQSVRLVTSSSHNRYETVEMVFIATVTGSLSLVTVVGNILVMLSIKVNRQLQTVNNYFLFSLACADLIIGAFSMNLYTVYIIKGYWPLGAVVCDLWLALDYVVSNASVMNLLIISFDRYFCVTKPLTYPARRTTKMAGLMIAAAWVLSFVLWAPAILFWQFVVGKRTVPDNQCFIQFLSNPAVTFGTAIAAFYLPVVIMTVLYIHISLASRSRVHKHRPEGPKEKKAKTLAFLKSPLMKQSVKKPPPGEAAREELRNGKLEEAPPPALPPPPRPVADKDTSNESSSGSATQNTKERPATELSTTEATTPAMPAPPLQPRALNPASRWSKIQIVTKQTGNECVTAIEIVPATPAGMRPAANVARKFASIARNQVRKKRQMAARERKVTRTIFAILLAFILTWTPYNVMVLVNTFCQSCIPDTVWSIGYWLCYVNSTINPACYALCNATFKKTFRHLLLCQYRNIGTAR
Protocol: as §1

[4] = target: M3 human muscarinic receptor (Homo sapiens, UniProt P20309); experiment: as above
M3 human muscarinic receptor, sequence (P20309 whole entry): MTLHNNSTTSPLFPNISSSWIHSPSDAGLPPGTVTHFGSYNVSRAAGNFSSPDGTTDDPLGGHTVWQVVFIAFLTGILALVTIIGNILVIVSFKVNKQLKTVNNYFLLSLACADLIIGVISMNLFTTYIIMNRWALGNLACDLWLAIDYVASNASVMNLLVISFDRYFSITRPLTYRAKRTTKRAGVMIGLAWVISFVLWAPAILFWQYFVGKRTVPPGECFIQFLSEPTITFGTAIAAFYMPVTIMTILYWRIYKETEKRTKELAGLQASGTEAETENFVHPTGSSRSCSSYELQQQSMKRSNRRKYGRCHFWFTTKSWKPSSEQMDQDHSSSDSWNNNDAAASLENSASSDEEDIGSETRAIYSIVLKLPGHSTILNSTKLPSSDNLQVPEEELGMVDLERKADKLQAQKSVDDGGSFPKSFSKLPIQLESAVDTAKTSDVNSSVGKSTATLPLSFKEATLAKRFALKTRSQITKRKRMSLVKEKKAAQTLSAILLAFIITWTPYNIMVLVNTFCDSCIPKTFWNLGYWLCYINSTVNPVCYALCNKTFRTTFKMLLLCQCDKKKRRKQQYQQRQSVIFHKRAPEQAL
Protocol: as §1

[5] = In vitro stability in human plasma; assay type: in vitro ADME; details: human plasma (lithium heparin), 36° C.
Protocol: The in vitro experiments are carried out at 36° C. and at a concentration of 5 μg/ml (6 μl of a 1 mg/ml dimethyl sulfoxide solution of each substance is added to a final volume of 1.2 ml). After 3 minutes of pre-incubation, reaction is started by addition of the test substances. At pre-defined times of 0, 5, 15, 30 and 60 min., aliquots of 100 μl of the plasma are separated and the reaction stopped by the addition of 1 ml of a 20 mM, pH 4.0 sodium acetate buffer solution. The test substances are replaced with buffer for the control reactions. Human plasma is obtained from volunteers by written informed consent. The blood is collected in tubes containing lithium heparin as anticoagulant, immediately centrifuged at 4° C. and the resultant plasma stored at −20° C. when not in use.
Plasma samples, previously diluted with 1 ml of a 20 mM, pH 4.0 sodium acetate buffer solution, were loaded into the C2 cartridges. […] There are no significant endogenous peaks at retention times of the analytes that would interfere with their quantitation. […] The lower limit of quantitation is established at 5 mg/ml for all analytes.

[6] = Stability in aqueous solutions; assay type: physicochemical; details: pH≦4
Protocol: as §1

healthy male volunteers = experiment: Clinical Phase I study, single inhaled doses by dry powder inhaler; assay type: in vivo, human
Protocol: Clinical Phase I study: Aclidinium bromide is tested in a Phase I, double-blind, partial cross-over, placebo controlled study to assess the activity, pharmacokinetics and tolerability of aclidinium.
Methods: 12 healthy male volunteers are randomly assigned to 1 of 4 treatment sequences comprising single doses of aclidinium (50, 300 and 600 micrograms) or placebo administered by dry powder inhaler. The washout period between administrations is at least 6 days. Efficacy endpoints are specific airway conductance (sGaw), airway resistance (Raw) and bronchial hyperresponsiveness (PC35 sGaw methacholine).

[7] = after inhaled single doses 100, 300, 900 micrograms

Compound | plasma levels (Men with COPD; following the 900 microgram dose) | affinity for M2 human muscarinic receptor [1] | affinity for M1 human muscarinic receptor [2] | affinity for M4 human muscarinic receptor [3] | affinity for M3 human muscarinic receptor [4] | half-life at 5 μg/ml [5] [min] | mean FEV1 AUC(0-24)/24 (Men with COPD; aclidinium 100 micrograms, p=0.002) [L] | mean FEV1 AUC(0-24)/24 (Men with COPD; aclidinium 300 micrograms, p<0.0001) [L] | mean FEV1 AUC(0-24)/24 (Men with COPD; aclidinium 900 micrograms) [L] | plasma levels (Men with COPD; [7]) | cases of mildly increased sweating possibly related to treatment (Men with COPD; human, in vivo) | tolerability (Men with COPD; single inhaled doses 100-900 micrograms) | cases of mild or moderate headache possibly related to treatment (Men with COPD; vs 2 with placebo) [cases] | stability in acid aqueous solutions [6] | PC35 sGaw methacholine (methacholine dose required to decrease sGaw) (healthy male volunteers; aclidinium 300 micrograms, at 2 h, placebo 35.5) [mg/mL] | PC35 sGaw methacholine (methacholine dose required to decrease sGaw) (healthy male volunteers; aclidinium 300 micrograms, at 24 h, placebo 27.1) [mg/mL] | PC35 sGaw methacholine (methacholine dose required to decrease sGaw) (healthy male volunteers; aclidinium 600 micrograms, at 2 h, placebo 35.5) [mg/mL] | PC35 sGaw methacholine (methacholine dose required to decrease sGaw) (healthy male volunteers; aclidinium 600 micrograms, at 24 h, placebo 27.1) [mg/mL] | detection in plasma (healthy male volunteers; after inhaled single doses 50-600 micrograms) | study-drug-related adverse events (healthy male volunteers; single inhaled doses 50-600 micrograms)
O=C(O)C(O)(c1cccs1)c1cccs1 [acid metabolite] | low levels | devoid of significant affinity | devoid of significant affinity | devoid of significant affinity | devoid of significant affinity | – | – | – | – | – | – | – | – | – | – | – | – | – | – | –
O=C(O[C@H]1C[N+]2(CCCOc3ccccc3)CCC1CC2)C(O)(c1cccs1)c1cccs1 [aclidinium, 3(R)-(2-hydroxy-2,2-dithien-2-ylacetoxy)-1-(3-phenoxypropyl)-1-azoniabicyclo[2.2.2]octane] | – | – | – | – | – | < 5 | 1.800 | 1.798 | 1.827 | No plasma levels | 1 | well tolerated | 6 | stable | 207.1 | 142.7 | 256.0 | 181.7 | Neither aclidinium nor its metabolites are detected | no study-drug-related adverse events
O[C@H]1C[N+]2(CCCOc3ccccc3)CCC1CC2 [alcohol metabolite] | – | devoid of significant affinity | devoid of significant affinity | devoid of significant affinity | devoid of significant affinity | – | – | – | – | No plasma levels | – | – | – | – | – | – | – | – | – | –
